These results are taken from publication PMC7669657 (Nature chemical biology, 2020).

Molecules are shown by their SMILES.

Test [1] deals with T1, NSD1 SET domain (Homo sapiens, UniProt Q96L73).
T1 sequence (Q96L73 1852-2085): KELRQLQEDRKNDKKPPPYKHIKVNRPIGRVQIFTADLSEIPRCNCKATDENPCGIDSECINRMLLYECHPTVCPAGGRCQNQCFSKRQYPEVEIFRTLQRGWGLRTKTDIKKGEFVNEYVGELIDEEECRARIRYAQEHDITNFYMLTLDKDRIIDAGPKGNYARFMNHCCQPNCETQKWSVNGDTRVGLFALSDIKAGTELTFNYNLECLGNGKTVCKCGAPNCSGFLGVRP
In kind it is binding. The conditions noted are these: 150 μM 15N NSD1 SET, 1H-15N HSQC.

Test [2] concerns the target T2, NSD1 SET domain (Homo sapiens, UniProt Q96L73).
T2 sequence (Q96L73 1852-2105): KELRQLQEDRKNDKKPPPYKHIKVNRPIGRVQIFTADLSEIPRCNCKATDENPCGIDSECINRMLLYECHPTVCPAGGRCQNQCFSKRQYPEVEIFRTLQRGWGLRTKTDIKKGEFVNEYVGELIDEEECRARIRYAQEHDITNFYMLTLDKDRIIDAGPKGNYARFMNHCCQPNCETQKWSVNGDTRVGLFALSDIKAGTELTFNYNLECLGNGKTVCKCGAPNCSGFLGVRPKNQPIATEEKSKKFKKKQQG
Nature of the test: MS covalent engagement and kinetics, NSD1 SET. In kind it is binding. The conditions noted are these: 1 μM NSD1 SET, 50 μM compound, 18 h, 32 °C.

Regarding `COc1cc(Br)cc2sc(N)nc12` [Compound 8], in test [1], the “chemical shift perturbations / binding by NMR” value was “less pronounced chemical shift perturbations”.
For `NC(=O)/C=C/c1cc(O)c2nc(N)sc2c1` [Compound 9], the “covalent binding by MS” value in test [2] is on record as “lack covalent binding”. The “chemical shift perturbations / binding by NMR” value in test [1] is given as “only weakly interact”.
